Measured values from article PMC12400508 (RSC Advances, 2025).
In brackets after ≈: the same amount, converted by molar mass. Where two headings read alike, the source gives them in different places.

How the values were obtained:
Mtb mc^26230 = experiment: microbe, parasite or virus in culture; assay type: cell-based, Mycobacterium tuberculosis; details: for MIC: Mycobacterium tuberculosis; for MIC (MIC99): Mtb mc^26230, 6 days, Table 1 and text
mc^26230 pMV261 = experiment: microbe, parasite or virus in culture; assay type: cell-based; details: Mycobacterium tuberculosis, read-out: MIC, pMV261
THP-1 cells = experiment: Cytotoxicity assay in THP-1 cells; assay type: cell-based, Human; details: for IC50: Homo sapiens, THP-1, 72 h, read-out: IC50 (reduces the viability of THP-1 cells by 50%); for SI, selectivity index (IC50/MIC): THP-1 IC50 / Mtb MIC
[1] = read-out: MIC, mc^26230 (parental strain)

SMILES | MIC (Mtb mc^26230) [µg/mL] | MIC (Mtb mc^26230; read-out: MIC, Wild-type) [µg/mL] | MIC (Mtb mc^26230; [1]) [µg/mL] | MIC (mc^26230 pMV261) [µg/mL] | IC50 (THP-1 cells) [µg/mL] | SI, selectivity index (IC50/MIC) (THP-1 cells) | MIC (MIC99) (Mtb mc^26230) [µg/mL]
NNC(=O)c1ccncc1 [INH, isoniazid, reference compound] | 0.039 (≈ 0.284 µM) | 0.078 (≈ 0.569 µM) | 0.039 (≈ 0.284 µM) | 0.078 (≈ 0.569 µM) | > 100 | >100 | 
O=C1N=C(NNC(=O)c2ccncc2)S/C1=C\c1ccc(Cl)cc1 [9n] | 12.5 (≈ 34.8 µM) | 12.5 (≈ 34.8 µM) | 12.5 (≈ 34.8 µM) | 25 (≈ 69.7 µM) |  |  | 12.5 (≈ 34.8 µM)
Cc1ccccc1/C=C1\SC(NNC(=O)c2ccncc2)=NC1=O [9d] | 1.56 (≈ 4.61 µM) | 1.56 (≈ 4.61 µM) | 1.56 (≈ 4.61 µM) | 3.12 (≈ 9.22 µM) | 21 (≈ 62.1 µM) | 14 | 
O=C1N=C(NNC(=O)c2ccncc2)S/C1=C\c1ccccc1F [9l] |  |  | 25 (≈ 73 µM) |  |  |  | 
O=C1N=C(NNC(=O)c2ccncc2)S/C1=C\c1ccccc1Cl [9p] |  |  | 25 (≈ 69.7 µM) |  |  |  | 
CO[C@H]1/C=C/O[C@@]2(C)Oc3c(C)c(O)c4c(O)c(c(/C=N/N5CCN(C)CC5)c(O)c4c3C2=O)NC(=O)/C(C)=C\C=C\[C@H](C)[C@H](O)[C@@H](C)[C@@H](O)[C@@H](C)[C@H](OC(C)=O)[C@@H]1C [RIF, reference compound] |  | 0.039 (≈ 0.0474 µM) |  | 0.039 (≈ 0.0474 µM) |  |  | 
O=C1N=C(NNC(=O)c2ccncc2)S/C1=C\c1ccc(F)cc1 [9j] | 12.5 (≈ 36.5 µM) | 12.5 (≈ 36.5 µM) | 12.5 (≈ 36.5 µM) | 12.5 (≈ 36.5 µM) | 18 (≈ 52.6 µM) | 1.4 | 12.5 (≈ 36.5 µM)
